This note sets out measurements from ChEMBL document CHEMBL1201862, “PubChem BioAssay data set” (2004).

Test systems include SK-MEL-5; SW-620; SK-OV-3; SF-295; CAKI-1; OVCAR-3; 786-0; RPMI-8226; HCC 2998; MOLT-4; UACC-62; SN12C; NCI-H460; SK-MEL-2; SR.
What all share (assay): inhibition of tumour cell growth, NCI panel, 48 h

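Five concentrations, 48 hours, 96-well plates. Abbreviation: GI50, concentration required for 50% inhibition of growth.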 The source made the active and inactive calls. Rule as the data show it: active = GI50 up to about 1.1 µM and inactive = higher.

In the case of `COc1nc(NC2OC(COC(C)=O)C(OC(C)=O)C(OC(C)=O)C2OC(C)=O)c(/N=C/C=N/c2c(NC3OC(COC(C)=O)C(OC(C)=O)C(OC(C)=O)C3OC(C)=O)nc(OC)[nH]c2=O)c(=O)[nH]1` (stereo not drawn), the GI50 in the experiment with SK-MEL-5, with SW-620, in the experiment on SK-OV-3, in the experiment with SF-295, with CAKI-1 and with OVCAR-3 was > 100 µM (inactive) throughout. The GI50 in the experiment with 786-0, in the experiment on RPMI-8226, in the experiment on HCC 2998, in the experiment on MOLT-4, in the experiment on UACC-62 and with SN12C was > 100 µM (inactive) throughout.

As to `O=C(CC(=O)C(=O)Nc1ccccc1)CC(c1ccccc1)c1c(O)c2ccccc2oc1=O` (stereo not drawn), the GI50 in the experiment with SK-MEL-5, in the experiment with NCI-H460, in the experiment with SW-620, with SK-OV-3, with SF-295 and in the experiment on CAKI-1 was > 100 µM (inactive) each time. Moreover, the GI50 with OVCAR-3, in the experiment with 786-0, in the experiment with HCC 2998, in the experiment on MOLT-4, with UACC-62 and in the experiment with SK-MEL-2 was > 100 µM (inactive) in each case.

With `O=C(NCCCCCCNC(=O)NC1OCC(O)C(O)C1O)NC1OCC(O)C(O)C1O` (stereo not drawn), the GI50 with SK-MEL-5, with NCI-H460, with SW-620, with SK-OV-3, with SR and with SF-295 was > 100 µM (inactive) in each case. The GI50 with CAKI-1, in the experiment on OVCAR-3, in the experiment with 786-0, in the experiment with RPMI-8226, in the experiment with MOLT-4 and in the experiment with UACC-62 was > 100 µM (inactive) throughout. Further, the GI50 with SK-MEL-2 and in the experiment with SN12C was > 100 µM (inactive) in each case.

Consider `C[N+](C)(C)CC1CCC/C1=N/O` (stereo not drawn), for which the GI50 in the experiment with SK-MEL-5 was > 100 µM (inactive); in the experiment on NCI-H460, 50.4 µM (inactive); in the experiment on SW-620, 2.62 µM (inactive); in the experiment with SK-OV-3 it was > 100 µM (inactive); with SR it was 27.7 µM (inactive); in the experiment with SF-295, > 100 µM (inactive). The GI50 in the experiment on OVCAR-3 is > 100 µM (inactive); in the experiment with 786-0, 22.2 µM (inactive); with RPMI-8226 it was 25.7 µM (inactive); in the experiment with HCC 2998, > 100 µM (inactive); in the experiment on MOLT-4, > 100 µM (inactive); in the experiment with UACC-62 it was > 100 µM (inactive). Further, the GI50 with SK-MEL-2 and in the experiment with SN12C was > 100 µM (inactive) throughout.

On to `CC(=O)NNc1nc(C)c(C(=O)NNC(=O)C(=O)Nc2c(Cl)cc([N+](=O)[O-])cc2Cl)s1`, for which the GI50 is 40 µM (inactive) in the experiment with SK-MEL-5; 43.2 µM (inactive) with NCI-H460; 24.5 µM (inactive) in the experiment with SW-620; 48.5 µM (inactive) in the experiment on SK-OV-3; 30.5 µM (inactive) with SR; 34.8 µM (inactive) with SF-295. Besides, the GI50 with OVCAR-3 is 21 µM (inactive); with 786-0, 33 µM (inactive); with RPMI-8226, 44.7 µM (inactive); with HCC 2998, 37.8 µM (inactive); in the experiment on MOLT-4, 30.4 µM (inactive); in the experiment on UACC-62, 29.9 µM (inactive). Also, the GI50 was 43.5 µM (inactive) in the experiment with SK-MEL-2 and 42.7 µM (inactive) with SN12C.

On to `COc1ccc(/C=C2\N=C(c3ccccc3)N(Nc3nnc(NN4C(=O)/C(=C/c5ccc(OC)cc5)N=C4c4ccccc4)c4ccccc34)C2=O)cc1`, for which the GI50 was 48.5 µM (inactive) in the experiment on SK-MEL-5; > 100 µM (inactive) in the experiment on NCI-H460; 55.2 µM (inactive) with SW-620; 26.6 µM (inactive) with SR; > 100 µM (inactive) in the experiment with SF-295; 56.9 µM (inactive) in the experiment with 786-0. Also, the GI50 in the experiment with RPMI-8226 is 26.4 µM (inactive); in the experiment with MOLT-4 it was 29.6 µM (inactive); in the experiment with UACC-62, 70.5 µM (inactive); in the experiment on SN12C, 68.5 µM (inactive).

Consider `CCN1c2ccccc2C(C(SC)S(=O)(=O)c2ccc(C)cc2)c2c1[nH]c(=O)n(C)c2=O` (stereo not drawn), for which the GI50 with SK-MEL-5, with SW-620, with SK-OV-3, in the experiment on SF-295, in the experiment on CAKI-1 and in the experiment on OVCAR-3 was > 100 µM (inactive) throughout. The GI50 in the experiment with 786-0 was > 100 µM (inactive); in the experiment with RPMI-8226 it was > 100 µM (inactive); in the experiment on HCC 2998, > 100 µM (inactive); in the experiment on MOLT-4, 94 µM (inactive); in the experiment on UACC-62, > 100 µM (inactive); in the experiment with SK-MEL-2, 71.1 µM (inactive). Further, the GI50 in the experiment on SN12C is > 100 µM (inactive).

Take `CCc1cccc(C(C)C)c1NC(=O)C(=O)CC(=O)c1c(C)[n+]([O-])c2ccccc2[n+]1[O-]`: the GI50 in the experiment with SK-MEL-5, in the experiment with NCI-H460, in the experiment on SW-620, with SK-OV-3, in the experiment with CAKI-1 and in the experiment with 786-0 was > 100 µM (inactive) throughout. Also, the GI50 with RPMI-8226 was 30.1 µM (inactive); in the experiment with HCC 2998 it was > 100 µM (inactive); with MOLT-4, 56.1 µM (inactive); in the experiment on UACC-62, > 100 µM (inactive); in the experiment with SK-MEL-2, > 100 µM (inactive); in the experiment with SN12C it was > 100 µM (inactive).

As to `CC(C)c1cc(C(C)C)c(S(=O)(=O)NN)c(C(C)C)c1`, the GI50 with SK-MEL-5, in the experiment on NCI-H460, with SW-620, with SR, in the experiment on SF-295 and in the experiment with CAKI-1 was > 100 µM (inactive) throughout. For the same compound, the GI50 with OVCAR-3, in the experiment with 786-0, with RPMI-8226, in the experiment on UACC-62, with SK-MEL-2 and with SN12C was > 100 µM (inactive) in each case.

Turning to `Cn1cnc(CCc2ccccc2)n1`, the GI50 in the experiment with SK-MEL-5, in the experiment with NCI-H460, with SW-620, with SK-OV-3, with SR and in the experiment on SF-295 was > 100 µM (inactive) each time. Also, the GI50 in the experiment on CAKI-1, in the experiment with OVCAR-3, with 786-0, in the experiment on RPMI-8226, in the experiment with MOLT-4 and in the experiment with UACC-62 was > 100 µM (inactive) each time. Moreover, the GI50 in the experiment with SK-MEL-2 and with SN12C was > 100 µM (inactive) each time.

Regarding `CC1(OCc2ccccc2)C(=O)N2C1NCC2(C)C` (stereo not drawn), the GI50 in the experiment with SK-MEL-5, in the experiment with NCI-H460, in the experiment on SW-620, in the experiment with SR, in the experiment with SF-295 and in the experiment on OVCAR-3 was > 100 µM (inactive) throughout. Further, the GI50 in the experiment on 786-0, in the experiment on RPMI-8226, in the experiment with HCC 2998, in the experiment on MOLT-4, in the experiment on UACC-62 and in the experiment on SK-MEL-2 was > 100 µM (inactive) throughout. Further, in the experiment with SN12C, the GI50 was > 100 µM (inactive).

`Cc1cc(C)nc(NS(=O)(=O)c2ccc(NC(=O)c3ccc(Cl)c4c(Nc5ccc(S(=O)(=O)Nc6cc(C)on6)cc5)c5ccccc5nc34)cc2)n1`: the GI50 is 16.4 µM (inactive) in the experiment with SK-MEL-5; 18 µM (inactive) in the experiment with NCI-H460; 17.3 µM (inactive) with SW-620; 19.4 µM (inactive) in the experiment on SK-OV-3; 18.2 µM (inactive) in the experiment on SF-295; 15.7 µM (inactive) with CAKI-1. Further, the GI50 with OVCAR-3 is 16.6 µM (inactive); with 786-0, 17 µM (inactive); in the experiment on RPMI-8226, 17.9 µM (inactive); with HCC 2998, 18.7 µM (inactive); in the experiment on MOLT-4, 22.9 µM (inactive); in the experiment on UACC-62, 17.1 µM (inactive). The GI50 in the experiment with SN12C is 17.9 µM (inactive).

Turning to `O=c1[nH]c(=O)n(C2CC(O)C(CO)O2)cc1OS(=O)(=O)C(F)(F)F` (stereo not drawn), the GI50 in the experiment with SK-MEL-5, with NCI-H460, in the experiment with SW-620, with SK-OV-3, with SF-295 and with CAKI-1 was > 100 µM (inactive) in each case. The GI50 in the experiment on OVCAR-3 was > 100 µM (inactive); in the experiment on 786-0, > 100 µM (inactive); in the experiment on RPMI-8226, > 100 µM (inactive); in the experiment on HCC 2998 it was > 100 µM (inactive); in the experiment with MOLT-4, > 100 µM (inactive); with UACC-62, 38.9 µM (inactive). Besides, the GI50 in the experiment with SK-MEL-2 and in the experiment on SN12C was > 100 µM (inactive) in each case.

As to `N#Cc1ccc(Sc2nc3ccccc3[nH]2)cc1`, the GI50 with SK-MEL-5 is 34.4 µM (inactive); in the experiment on NCI-H460 it was 79.6 µM (inactive); in the experiment with SW-620, > 100 µM (inactive); in the experiment with SK-OV-3, > 100 µM (inactive); in the experiment with SR, > 100 µM (inactive); with SF-295 it was > 100 µM (inactive). Moreover, the GI50 in the experiment on CAKI-1 was > 100 µM (inactive); in the experiment with 786-0 it was > 100 µM (inactive); with MOLT-4, 94 µM (inactive); with UACC-62, 41.7 µM (inactive); with SK-MEL-2, > 100 µM (inactive); with SN12C, > 100 µM (inactive).

Take `Cc1cc(N(CCC#N)CCC#N)ccc1/C=C\C(=O)Nc1ccccc1`: the GI50 in the experiment on SK-MEL-5 was > 100 µM (inactive); with NCI-H460, 71.3 µM (inactive); in the experiment on SW-620 it was > 100 µM (inactive); in the experiment with SK-OV-3, > 100 µM (inactive); in the experiment on SF-295, 86.1 µM (inactive); in the experiment on CAKI-1 it was > 100 µM (inactive). For the same compound, the GI50 with OVCAR-3 was > 100 µM (inactive); with 786-0, > 100 µM (inactive); with RPMI-8226, > 100 µM (inactive); in the experiment with HCC 2998 it was 13.6 µM (inactive); with MOLT-4 it was > 100 µM (inactive); in the experiment on UACC-62 it was 0.931 µM (active). Moreover, the GI50 with SK-MEL-2 and in the experiment on SN12C was > 100 µM (inactive) each time.
